pKi: −log10 of the molar value.
What was measured:
[1] = molecular target: T1, Serotonin 3 (5-HT3) receptor (Rattus norvegicus, UniProt P35563+Q9JJ16); experiment: pKi value for inhibition of [3H]LY-278584 binding to 5-hydroxytryptamine 3 receptor; type: protein-complex assay
T1 sequence (P35563 whole entry): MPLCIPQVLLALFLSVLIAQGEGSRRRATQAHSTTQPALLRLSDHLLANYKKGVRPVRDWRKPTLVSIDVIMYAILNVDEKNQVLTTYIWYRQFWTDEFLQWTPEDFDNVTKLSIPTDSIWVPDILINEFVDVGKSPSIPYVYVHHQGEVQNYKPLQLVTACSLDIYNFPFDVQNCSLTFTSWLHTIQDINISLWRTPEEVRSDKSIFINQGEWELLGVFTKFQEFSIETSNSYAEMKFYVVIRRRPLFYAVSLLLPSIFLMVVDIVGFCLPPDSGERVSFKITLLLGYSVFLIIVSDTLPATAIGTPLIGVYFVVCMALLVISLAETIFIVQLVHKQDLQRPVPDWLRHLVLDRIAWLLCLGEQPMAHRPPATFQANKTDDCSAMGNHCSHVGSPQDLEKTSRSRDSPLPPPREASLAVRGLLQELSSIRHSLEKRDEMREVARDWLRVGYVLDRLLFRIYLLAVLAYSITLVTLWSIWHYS
T1 sequence (Q9JJ16 whole entry): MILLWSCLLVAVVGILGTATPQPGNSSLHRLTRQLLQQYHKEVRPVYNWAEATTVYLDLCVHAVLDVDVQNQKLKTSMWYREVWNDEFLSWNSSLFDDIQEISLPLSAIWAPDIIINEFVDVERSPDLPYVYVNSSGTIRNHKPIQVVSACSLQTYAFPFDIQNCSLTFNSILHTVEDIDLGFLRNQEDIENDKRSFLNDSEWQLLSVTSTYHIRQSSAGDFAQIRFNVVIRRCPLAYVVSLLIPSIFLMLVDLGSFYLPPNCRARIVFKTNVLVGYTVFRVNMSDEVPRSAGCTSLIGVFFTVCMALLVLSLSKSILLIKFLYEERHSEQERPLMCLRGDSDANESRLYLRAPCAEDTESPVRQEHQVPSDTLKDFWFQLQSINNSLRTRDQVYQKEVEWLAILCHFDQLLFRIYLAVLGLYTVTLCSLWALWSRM

[2] = molecular target: T1, Serotonin 3 (5-HT3) receptor; experiment: Inhibitory activity against 5-hydroxytryptamine 3 receptor in rat cortical membranes using [3H]- 1-Methyl-1H-indazole-3-carboxylic acid (8-methyl-8-aza-bicyclo[3.2.1]oct-3-yl)-amide as a radioligand; type: cell membranes
[3] = molecular target: T2, 5-hydroxytryptamine receptor 1A (Rattus norvegicus, UniProt P19327); experiment: Inhibitory activity against 5-hydroxytryptamine 1A receptor in rat cortical membranes using [3H]8-OH-DPAT as a radioligand; type: cell membranes
T2 sequence (P19327 whole entry): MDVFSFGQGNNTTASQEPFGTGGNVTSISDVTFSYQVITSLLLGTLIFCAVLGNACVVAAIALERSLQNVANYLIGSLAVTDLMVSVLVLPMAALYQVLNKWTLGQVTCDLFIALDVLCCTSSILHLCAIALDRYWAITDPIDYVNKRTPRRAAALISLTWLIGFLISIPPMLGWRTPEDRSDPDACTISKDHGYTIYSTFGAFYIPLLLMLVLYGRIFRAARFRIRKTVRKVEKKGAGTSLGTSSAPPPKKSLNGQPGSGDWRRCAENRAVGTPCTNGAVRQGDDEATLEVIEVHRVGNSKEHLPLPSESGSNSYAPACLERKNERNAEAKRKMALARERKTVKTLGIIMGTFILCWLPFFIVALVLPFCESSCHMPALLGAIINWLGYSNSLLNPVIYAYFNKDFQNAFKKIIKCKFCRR

[4] = molecular target: 5-hydroxytryptamine receptor 1B (Rattus norvegicus, UniProt P28564); experiment: Inhibitory activity against 5-hydroxytryptamine 1B receptor in rat cortical membranes using [3H]5-HT as a radioligand; type: cell membranes
Rattus norvegicus [5] = experiment: Effective dose required to reduce von benzold jarisch reflex response to 5-HT was determined; Value ranges from 10-30 ug/Kg; type: functional
Rattus norvegicus [6] = experiment: Percentage inhibition 5-HT- mediated bradycardia in rat after 3 ug/Kg of compound administered intravenously; type: functional

Chain of 5-hydroxytryptamine receptor 1B (P28564 whole entry): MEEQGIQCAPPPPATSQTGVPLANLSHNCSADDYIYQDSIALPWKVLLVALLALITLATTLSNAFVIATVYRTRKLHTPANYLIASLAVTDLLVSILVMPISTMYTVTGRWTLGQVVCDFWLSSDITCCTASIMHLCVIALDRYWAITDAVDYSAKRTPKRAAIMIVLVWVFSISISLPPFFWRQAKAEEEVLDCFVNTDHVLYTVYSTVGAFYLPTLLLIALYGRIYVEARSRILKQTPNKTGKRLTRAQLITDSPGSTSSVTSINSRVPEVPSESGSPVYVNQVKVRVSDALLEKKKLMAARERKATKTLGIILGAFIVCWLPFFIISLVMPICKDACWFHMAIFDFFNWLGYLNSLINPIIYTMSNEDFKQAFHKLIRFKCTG

Row | pKi [3] | pKi [4] | SMILES | pKi [1] | pKi [2] | ED50 (Rattus norvegicus [5]) [mg/kg] | Inhibition (Rattus norvegicus [6]) [%]
1 | – | – | CN1C2CCC1CC(NC(=O)c1n[nH]c3ccccc13)C2 (stereo not drawn) | 8.37 | 8.37 | – | –
2 | – | – | CN1C2CCC1CC(NC(=O)c1c3ccccc3nn1C)C2 (stereo not drawn) | 5.98 | 5.98 | – | –
3 | – | – | CN1[C@@H]2CC[C@H]1C[C@@H](OC(=O)c1cc(Cl)cc(Cl)c1)C2 [BEMESETRON] | 7.59 | 7.58 | – | –
4 | < 6.00 | < 6.00 | CN1C2CCCC1CC(NC(=O)c1nn(C)c3ccccc13)C2 (stereo not drawn) [GRANISETRON] | – | – | 0.01 | –
5 | – | – | CCN(CC)CCNC(=O)c1cc(Cl)c(N)cc1OC [METOCLOPRAMIDE] | 6.30 | 6.30 | – | –
6 | – | – | c1ccc2nc(N3CCNCC3)ccc2c1 [QUIPAZINE] | 8.52 | 8.52 | – | –
7 | – | – | CN1[C@@H]2CC[C@H]1C[C@@H](OC(=O)c1c[nH]c3ccccc13)C2 [TROPISETRON] | 8.89 | 8.89 | – | 66
8 | – | – | COc1cc(N)c(Cl)cc1C(=O)NC1CN2CCC1CC2 (stereo not drawn) [ZACOPRIDE] | 9.38 | 9.38 | – | –
